The supplement of paper PMC4862054

What was measured:
Details in all cases: incubation time: 72 h
[1] = test system: CAL-148; experiment: normalised viability (% of control), CellTiter-Blue; higher = more viable cells (about 100 = DMSO control)
Procedure, shortened: (§1)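 The reported quantity is normalised viability at a single listed concentration of the series. Compound in 5 µl medium was pre-dispensed into 384-well plates and 20 µl of breast cancer cell suspension was added for 72 h. A 2 h, 37 °C CellTiter-Blue step (2.5 µl) preceded fluorescence reading at 560/590 nm, and plates were normalised to vehicle (100) and a positive kill control (0).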

[2] = test system: BT-549; experiment: as above
Procedure, shortened: as §1

[3] = test system: CAL-51; experiment: as above
Procedure, shortened: as §1

[4] = test system: MFM-223; experiment: as above
Procedure, shortened: as §1

[5] = test system: HCC1937; experiment: as above
Procedure, shortened: as §1

[6] = test system: Hs578T; experiment: as above
Procedure, shortened: as §1

[7] = test system: MDA-MB-453; experiment: as above
Procedure, shortened: as §1

[8] = test system: DU-4475; experiment: as above
Procedure, shortened: as §1

[9] = test system: MDA-MB-231; experiment: as above
Procedure, shortened: as §1

[10] = test system: HDQ-P1; experiment: as above
Procedure, shortened: as §1

[11] = test system: HCC1143; experiment: as above
Procedure, shortened: as §1

[12] = test system: CAL-148; experiment: drug sensitivity score (DSS), CellTiter-Glo (DSS (AUC-based score)); higher = stronger drug effect (viability inhibition or cytotoxicity); extreme values may be limits of the assay
Procedure, shortened: (§2)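 A drug sensitivity score was derived from the area under each fitted dose-response curve. Breast cancer cells (20 µl suspension) were seeded onto compound in 384-well plates, using 5 concentrations 10-fold apart over a compound-specific 10,000-fold range, and incubated 72 h. Readouts were CellTox Green fluorescence and then CellTiter-Glo luminescence, with every plate normalised to 0.1 % DMSO and a positive kill control.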

[13] = test system: BT-474; experiment: as above
Procedure, shortened: as §2

[14] = test system: MDA-MB-468; experiment: as above
Procedure, shortened: as §2

[15] = test system: BT-549; experiment: as above
Procedure, shortened: as §2

[16] = test system: CAL-120; experiment: as above
Procedure, shortened: as §2

[17] = test system: MCF-10A; experiment: as above
Procedure, shortened: as §2

[18] = test system: Hs578T; experiment: as above
Procedure, shortened: as §2

[19] = test system: MDA-MB-453; experiment: as above
Procedure, shortened: as §2

[20] = test system: DU-4475; experiment: as above
Procedure, shortened: as §2

[21] = test system: SK-BR-3; experiment: as above
Procedure, shortened: as §2

[22] = test system: MDA-MB-231; experiment: as above
Procedure, shortened: as §2

[23] = test system: HDQ-P1; experiment: as above
Procedure, shortened: as §2

[24] = test system: HCC1143; experiment: as above
Procedure, shortened: as §2

Molecule NC1(c2ccc(-c3nc4ccn5c(=O)[nH]nc5c4cc3-c3ccccc3)cc2)CCC1 [MK-2206] has a normalised viability ([1]; 0.3 nM) of 102%, a normalised viability ([1]; 3 nM) of 106% and a normalised viability ([1]; 10 nM) of 110%. It also gave a normalised viability ([2]; 1 nM) of 101%, a normalised viability ([2]; 100 nM) of 106% and a normalised viability ([2]; 1000 nM) of 85.3%. For the same molecule, the normalised viability ([3]; 0.3 nM) was 104%, the normalised viability ([3]; 3 nM) was 101% and the normalised viability ([3]; 10 nM) was 99.6%. The normalised viability ([4]; 1 nM) was 109%, the normalised viability ([4]; 100 nM) was 96.8% and the normalised viability ([4]; 1000 nM) was 19.8%. For the same molecule, the normalised viability ([5]; 1 nM) was 87.4%, the normalised viability ([5]; 100 nM) was 98.5% and the normalised viability ([5]; 1000 nM) was 104%. For the same molecule, the normalised viability ([6]; 1 nM) was 118%, the normalised viability ([6]; 100 nM) was 124% and the normalised viability ([6]; 1000 nM) was 85.2%. The normalised viability ([7]; 0.3 nM) was 112%, the normalised viability ([7]; 3 nM) was 95.2% and the normalised viability ([7]; 10 nM) was 96.6%. The normalised viability ([8]; 0.3 nM) was 120%, the normalised viability ([8]; 3 nM) was 111% and the normalised viability ([8]; 10 nM) was 107%. It also gave a normalised viability ([9]; 1 nM) of 127%, a normalised viability ([9]; 100 nM) of 95.9% and a normalised viability ([9]; 1000 nM) of 104%. It also gave a normalised viability ([10]; 0.3 nM) of 110%, a normalised viability ([10]; 3 nM) of 111% and a normalised viability ([10]; 10 nM) of 109%. For the same molecule, the normalised viability ([11]; 1 nM) was 105%, the normalised viability ([11]; 100 nM) was 108% and the normalised viability ([11]; 1000 nM) was 87.7%. The drug sensitivity score [12] was 1.35, the drug sensitivity score [13] was 0 and the drug sensitivity score [14] was 0.936. For the same molecule, the drug sensitivity score [15] was 2.74, the drug sensitivity score [16] was 0 and the drug sensitivity score [17] was 0. It also gave a drug sensitivity score [18] of 0.281, a drug sensitivity score [19] of 5.41 and a drug sensitivity score [20] of 0.0487. The drug sensitivity score [21] was 3.43, the drug sensitivity score [22] was 0 and the drug sensitivity score [23] was 0. The drug sensitivity score [24] was 0.
With NC(=O)c1cccc2cn(-c3ccc([C@@H]4CCCNC4)cc3)nc12 [MK-4827] the normalised viability ([1]; 3 nM) was 97.7%, the normalised viability ([1]; 30 nM) was 98.2% and the normalised viability ([1]; 100 nM) was 95.8%. It also gave a normalised viability ([2]; 10 nM) of 79.1%, a normalised viability ([2]; 1000 nM) of 93.3% and a normalised viability ([2]; 10000 nM) of 72.4%. It also gave a normalised viability ([3]; 3 nM) of 112%, a normalised viability ([3]; 30 nM) of 105% and a normalised viability ([3]; 100 nM) of 104%. It also gave a normalised viability ([4]; 10 nM) of 92.4%, a normalised viability ([4]; 1000 nM) of 96.4% and a normalised viability ([4]; 10000 nM) of 111%. It also gave a normalised viability ([5]; 10 nM) of 55.2%, a normalised viability ([5]; 1000 nM) of 70.5% and a normalised viability ([5]; 10000 nM) of 38.3%. It also gave a normalised viability ([6]; 10 nM) of 96.2%, a normalised viability ([6]; 1000 nM) of 93.7% and a normalised viability ([6]; 10000 nM) of 80.7%. It also gave a normalised viability ([7]; 3 nM) of 116%, a normalised viability ([7]; 30 nM) of 90.8% and a normalised viability ([7]; 100 nM) of 93.3%. The normalised viability ([8]; 3 nM) was 94.8%, the normalised viability ([8]; 30 nM) was 81.1% and the normalised viability ([8]; 100 nM) was 85.5%. It also gave a normalised viability ([9]; 10 nM) of 94%, a normalised viability ([9]; 1000 nM) of 90.7% and a normalised viability ([9]; 10000 nM) of 62.2%. The normalised viability ([10]; 3 nM) was 95.3%, the normalised viability ([10]; 30 nM) was 94.1% and the normalised viability ([10]; 100 nM) was 95.6%. It also gave a normalised viability ([11]; 10 nM) of 88.9%, a normalised viability ([11]; 1000 nM) of 85% and a normalised viability ([11]; 10000 nM) of 64.6%. It also gave a drug sensitivity score [12] of 0.954, a drug sensitivity score [13] of 0 and a drug sensitivity score [14] of 1.06. The drug sensitivity score [15] was 0, the drug sensitivity score [16] was 0 and the drug sensitivity score [17] was 0. It also gave a drug sensitivity score [18] of 0, a drug sensitivity score [19] of 0 and a drug sensitivity score [20] of 2.22. The drug sensitivity score [21] was 0, the drug sensitivity score [22] was 0 and the drug sensitivity score [23] was 0. The drug sensitivity score [24] was 0.
With N[C@@H](Cc1ccc(N(CCCl)CCCl)cc1)C(=O)O [Melphalan] the normalised viability ([1]; 0.297 nM) was 92.6%, the normalised viability ([1]; 2.97 nM) was 94.5% and the normalised viability ([1]; 9.9 nM) was 91.4%. It also gave a normalised viability ([2]; 0.99 nM) of 92.7%, a normalised viability ([2]; 99 nM) of 115% and a normalised viability ([2]; 990 nM) of 89.3%. The normalised viability ([3]; 0.297 nM) was 105%, the normalised viability ([3]; 2.97 nM) was 102% and the normalised viability ([3]; 9.9 nM) was 107%. It also gave a normalised viability ([4]; 0.99 nM) of 90%, a normalised viability ([4]; 99 nM) of 84.7% and a normalised viability ([4]; 990 nM) of 99.3%. The normalised viability ([5]; 0.99 nM) was 89%, the normalised viability ([5]; 99 nM) was 64.2% and the normalised viability ([5]; 990 nM) was 39.5%. For the same molecule, the normalised viability ([6]; 0.99 nM) was 98.4%, the normalised viability ([6]; 99 nM) was 82% and the normalised viability ([6]; 990 nM) was 73%. It also gave a normalised viability ([7]; 0.297 nM) of 105%, a normalised viability ([7]; 2.97 nM) of 101% and a normalised viability ([7]; 9.9 nM) of 102%. It also gave a normalised viability ([8]; 0.297 nM) of 101%, a normalised viability ([8]; 2.97 nM) of 84.1% and a normalised viability ([8]; 9.9 nM) of 92.8%. The normalised viability ([9]; 0.99 nM) was 91.1%, the normalised viability ([9]; 99 nM) was 97.7% and the normalised viability ([9]; 990 nM) was 91.5%. The normalised viability ([10]; 0.297 nM) was 117%, the normalised viability ([10]; 2.97 nM) was 94% and the normalised viability ([10]; 9.9 nM) was 91.2%. The normalised viability ([11]; 0.99 nM) was 67.8%, the normalised viability ([11]; 99 nM) was 70.3% and the normalised viability ([11]; 990 nM) was 67.8%. For the same molecule, the drug sensitivity score [12] was 19.5, the drug sensitivity score [13] was 19.2 and the drug sensitivity score [14] was 21.5. It also gave a drug sensitivity score [15] of 14.4, a drug sensitivity score [16] of 11.5 and a drug sensitivity score [17] of 17.6. For the same molecule, the drug sensitivity score [18] was 16.2, the drug sensitivity score [19] was 21.3 and the drug sensitivity score [20] was 19.1. The drug sensitivity score [21] was 20.5, the drug sensitivity score [22] was 20.7 and the drug sensitivity score [23] was 19.5. It also gave a drug sensitivity score [24] of 13.9.
For O=C(c1cc(Cc2n[nH]c(=O)c3ccccc23)ccc1F)N1CCN(C(=O)C2CC2)CC1 [Olaparib], the normalised viability ([1]; 3 nM) was 76.5%, the normalised viability ([1]; 30 nM) was 87.8% and the normalised viability ([1]; 100 nM) was 83.3%. The normalised viability ([2]; 10 nM) was 95%, the normalised viability ([2]; 1000 nM) was 90.8% and the normalised viability ([2]; 10000 nM) was 84.9%. For the same molecule, the normalised viability ([3]; 3 nM) was 107%, the normalised viability ([3]; 30 nM) was 98.5% and the normalised viability ([3]; 100 nM) was 97.7%. For the same molecule, the normalised viability ([4]; 10 nM) was 98.3%, the normalised viability ([4]; 1000 nM) was 98.8% and the normalised viability ([4]; 10000 nM) was 114%. For the same molecule, the normalised viability ([5]; 10 nM) was 78.5%, the normalised viability ([5]; 1000 nM) was 58.4% and the normalised viability ([5]; 10000 nM) was 51.2%. For the same molecule, the normalised viability ([6]; 10 nM) was 110%, the normalised viability ([6]; 1000 nM) was 109% and the normalised viability ([6]; 10000 nM) was 75.7%. For the same molecule, the normalised viability ([7]; 3 nM) was 109%, the normalised viability ([7]; 30 nM) was 92.3% and the normalised viability ([7]; 100 nM) was 100%. The normalised viability ([8]; 3 nM) was 95.6%, the normalised viability ([8]; 30 nM) was 89.2% and the normalised viability ([8]; 100 nM) was 91.6%. It also gave a normalised viability ([9]; 10 nM) of 89.7%, a normalised viability ([9]; 1000 nM) of 88% and a normalised viability ([9]; 10000 nM) of 72.2%. For the same molecule, the normalised viability ([10]; 3 nM) was 95.6%, the normalised viability ([10]; 30 nM) was 102% and the normalised viability ([10]; 100 nM) was 103%. For the same molecule, the normalised viability ([11]; 10 nM) was 81.6%, the normalised viability ([11]; 1000 nM) was 92.9% and the normalised viability ([11]; 10000 nM) was 80.2%. It also gave a drug sensitivity score [12] of 2.94, a drug sensitivity score [13] of 0 and a drug sensitivity score [14] of 2.57. The drug sensitivity score [15] was 1.44, the drug sensitivity score [16] was 1.26 and the drug sensitivity score [17] was 0. It also gave a drug sensitivity score [18] of 0, a drug sensitivity score [19] of 0 and a drug sensitivity score [20] of 0. It also gave a drug sensitivity score [21] of 0, a drug sensitivity score [22] of 0 and a drug sensitivity score [23] of 0. For the same molecule, the drug sensitivity score [24] was 0.
